Active and inactive are the calls of the source. How the calls were made is not given here. *1 amine or outer side, *2 acyl side, *3 side chain or, on linkers, in order; H or OH if unused. Where a SMILES comes first, the peptide text is derived from it. [ ]: non-standard residue; d: D form. X2 = CCC[C@@H](N[*:1])[C@H](C)C(=O)O[C@H](C(=O)[*:2])[C@@H](C)CC; X1 = CC(N[*:1])C(=O)C(C)(C)C(=O)[*:2]; NMeY = CN[C@@H](Cc1ccc(O)cc1)C(=O)O; NMeL = CN[C@@H](CC(C)C)C(=O)O; NMeV = CN[C@H](C(=O)O)C(C)C; NMeA = CN[C@@H](C)C(=O)O

Here are results for 62 compounds from PubChem BioAssay AID489041 (Sanford-Burnham Center for Chemical Genomics, 2010).

The subject of this experiment is HEK-293T NF-kB luciferase reporter counterscreen, luminescence. Put plainly: inhibitors of HEK-293T NF-kB luciferase – HEK-293T cells, luminescence, counter-screen for T-cell antigen receptor NF-kB inhibitors, dose response (AID 489041). For orientation: Counterscreens check selectivity or assay interference.
With `CCCCC(=O)NC(c1ccc(Cl)cc1Cl)c1ccc2cccnc2c1O` (configuration not stated), the IC50 – broadly, the concentration needed to halve the response being measured – is > 80 µM (inactive).

Turning to `COc1cc(/C=C/[N+](=O)[O-])ccc1OCc1cccc(C(=O)O)c1`, the half-inhibitory concentration (IC50) was 10.5 µM.

Turning to `COC(=O)Nc1ccc(S(=O)(=O)N2CCCc3ccccc32)cc1`, the IC50 is 11.9 µM.

Regarding `CN(C)c1ccc(-c2nn3c(-c4ccccc4Cl)nnc3s2)cc1`, the IC50 is 19.8 µM.

As for `CCS(=O)(=O)c1ncc(Cl)c(C(=O)Nc2ccc(S(=O)(=O)N(C)c3ccccc3)cc2)n1`, the IC50 was 20.2 µM (inactive).

Consider `CCN(CC)c1ccc(/C=N/NC(=O)c2cccc(S(=O)(=O)Nc3ccccc3OC)c2)c(O)c1`, for which the IC50 is 0.23 µM.

For `O=C(Sc1cccc2cccnc12)c1ccc(F)cc1`, the IC50 was 34.2 µM (inactive).

With `COC(=O)c1ccccc1NC1=C/C(=N\S(=O)(=O)c2cccs2)c2ccccc2C1=O`, the IC50 is 1.04 µM.

As for `COc1cccc(CN(C)C(=O)c2cc(COc3ccc4ncccc4c3)on2)c1`, the IC50 was 1.9 µM.

On to `Cc1ccc2cccc(NS(=O)(=O)c3ccccc3)c2n1`, for which the IC50 is > 80 µM (inactive).

Regarding `COC(=O)C1=C(CN2CCCc3ccccc32)NC(=O)NC1c1ccc(F)cc1` (configuration not stated), the IC50 is 5.33 µM.

`NC(=O)CC(NC(=O)c1ccc(Br)cc1)c1ccc(N2CCCCCC2)c([N+](=O)[O-])c1` (configuration not stated): the IC50 is 29.3 µM (inactive).

For `O=C(N/N=C(\c1ccccc1)c1cccnc1)c1cccc(F)c1`, the IC50 was > 80 µM (inactive).

On to `C=CC[C@@H](CC/C=C/C=C/CC/C=C\[C@@H]1CSC([C@@H]2C[C@@H]2C)=N1)OC`, for which the IC50 was 3.72 µM.

`CC(C)(C)OC(=O)NCCCCCc1cn(CC(=O)NCCCCCCCCCCC(=O)N2CCN(C(=O)OC(C)(C)C)CC2)nn1`: the IC50 was 0.22 µM.

Turning to `Cc1noc(C)c1CSc1nc2ccccc2c(=O)n1-c1ccccc1`, the IC50 was 9.04 µM.

With `C[C@]12CC[C@H]3[C@@H](CC[C@]4(O)C[C@@H](O)CC[C@]34C=O)[C@@]1(O)CC[C@@H]2C1=CC(=O)OC1`, the IC50 is 0.34 µM.

Take `COC(=O)CCC(=O)NC(=S)Nc1sc(C)c(C)c1C(N)=O`: the IC50 is 0.74 µM.

On to `COc1ccc2c(c1)C(=O)N1[C@H]3c4cc(Br)ccc4OC[C@@H]3[C@H](c3ccccc3)[C@]1(C)C(=O)N2`, for which the IC50 is > 80 µM (inactive).

Turning to `COc1cc(C(=O)OCCc2cc3ccccc3c(=O)o2)cc(OC)c1OC`, the IC50 is 14.9 µM.

As to `CCn1cc(C(=O)NC2CCCc3c2cnn3-c2cccc(C)c2C)cn1` (configuration not stated), the half-maximal inhibitory concentration (IC50) was 14.7 µM.

Turning to `Cc1ccc(NC(=O)Nc2ccnc(-c3cccnc3)n2)cc1`, the IC50 was > 80 µM (inactive).

On to `CCOC(=O)c1[nH]c2c(c1C)C(=O)CC(c1ccco1)C2` (configuration not stated), for which the IC50 was 4.38 µM.

For `CCN(CC)c1ccc2nc3ccc(N)cc3[n+](-c3ccccc3)c2c1`, the IC50 was 2.72 µM.

`COc1cc2c(c(OC)c1OC)-c1ccc(OC)c(=O)cc1[C@@H](N(C)CC#CCO)CC2`: the IC50 was 0.56 µM.

`COc1cc(C(=O)N2CCN(c3cc(Cl)ccc3Cl)CC2)cc(OC)c1OC`: the IC50 is 3.01 µM.

For the compound `COc1ccc(C(=O)NNC(=O)c2ccccn2)cc1`, the IC50 was 2.92 µM.

On to `COC(=O)[C@]12OC[C@]34C([C@@H](O)[C@@H]1O)[C@]1(C)CC(=O)C(O)=C(C)[C@@H]1C[C@H]3OC(=O)[C@H](O)[C@@H]24` (some centres not stated), for which the IC50 was 0.548 µM.

Take `COc1ccc([C@H]2CC(=O)C=C(c3c(OC)cccc3OC)C2)cc1`: the IC50 is 10.2 µM.

Take `CCOC(=O)c1[nH]c(C)c(C(=O)c2cc(F)ccc2F)c1C`: the IC50 is 6.54 µM.

With `Cc1cc(C(=O)N2CC=C(c3ccccc3)CC2)c2ccccc2n1`, the IC50 was 5.69 µM.

With `COc1cc(C(=O)Nc2ccc3c(c2)ncn3C)cc(OC)c1OC`, the IC50 was 14.7 µM.

With `CCOCCOC(=O)c1[nH]c2c(c1C)C(=O)CC(c1ccccc1)C2` (configuration not stated), the IC50 is 3.05 µM.

Regarding `C=C1C(=O)C=C2CN(C(=O)c3ccccc3)[C@@](Cc3ccc(F)cc3)(C(=O)OC)[C@@H]12`, the IC50 is 11 µM.

As for `CCCCCn1c2c(c(=N)c3ccccc31)CCC2`, the IC50 is 1.75 µM.

As for `CCC[C@H]1NC(=O)[C@H](C)N(C)C(=O)C(C)(C)C(=O)C(C)NC(=O)[C@H](Cc2ccc(OC)cc2)N(C)C(=O)[C@H](C(C)C)N(C)C(=O)CNC(=O)[C@H](CC(C)C)N(C)C(=O)CNC(=O)[C@H]([C@@H](C)CC)OC(=O)[C@H]1C` (some centres not stated) (cyclo(G[NMeL]G[NMeV][NMeY](Me)[X1][NMeA][X2])), the IC50 was 46.7 µM (inactive).

Take `CCOc1ccc2c(c1)OC(c1ccc(C)cc1)(C(F)(F)F)NC2=O` (configuration not stated): the IC50 was 5.57 µM.

Regarding `CC(Nc1ncnc2ccccc12)c1ccccc1` (configuration not stated), the IC50 is 3.28 µM.

With `CC1(C)Cc2c(sc(NC(=O)COc3cccc4ccccc34)c2C#N)C(C)(C)N1`, the IC50 is > 80 µM (inactive).

In the case of `Cc1cccc(N2CCN(C(=O)c3ccc4[nH]c(C)c(C)c4c3)CC2)c1C`, the IC50 was 19.2 µM.

Turning to `COc1ccc(CCNc2cc(N3CCN(C(=O)c4ccccc4F)CC3)ccc2[N+](=O)[O-])cc1OC`, the 50% inhibitory concentration (IC50) was 0.68 µM.

For the compound `COc1ccc(COC(=O)c2cc([N+](=O)[O-])ccc2N2CCOCC2)cc1F`, the IC50 was 2.29 µM.

`Cc1ccc(O)c(NC(=O)CCC2CCCCC2)c1`: the IC50 is > 80 µM (inactive).

In the case of `CCCCC(=O)NC(c1ccc(N(CC)CC)cc1)c1ccc2cccnc2c1O` (configuration not stated), the IC50 is > 80 µM (inactive).

On to `CCOC(=O)C1CCN(S(=O)(=O)c2c(Cl)ccc3nonc23)CC1`, for which the IC50 is 10.7 µM.

On to `COc1ccc(/C=N/NC(=O)c2[nH]c3ccc(Br)cc3c2-c2ccccc2)cc1`, for which the IC50 is 21.1 µM (inactive).

As to `CCn1nc(C)c(CNC(=O)c2ccc(OC3CCN(Cc4ccccn4)CC3)cc2)c1C`, the IC50 is 1.72 µM.

Consider `Cc1ccc(C)c(NS(=O)(=O)c2ccc(-c3cnc(C4CC4)o3)cc2)c1`, for which the IC50 is 0.42 µM.

For `CC(C)Cn1c(N)c(C(=O)CSc2ccc3c(c2)OCCO3)c(=O)n(C)c1=O`, the IC50 is 0.85 µM.

On to `CCCCCCCCn1c2c(c(=N)c3c1CCC3)CCCC2`, for which the IC50 was 1.43 µM.

`Cc1ccc(Nc2nc(-c3c(C)nc4ncccn34)cs2)cc1`: the IC50 is 1 µM.

For `COC(=O)c1[nH]c2ccc(Br)cc2c1NC(=O)CN1CCN(C2CCCCC2)CC1`, the IC50 is 13.4 µM.

With `CCOC(=O)c1ccc(NC(=O)Cn2cnc3cc(C)c(C)cc32)cc1`, the 50% inhibitory concentration (IC50) is 0.88 µM.

As for `COc1cc(-c2noc(C)c2-c2ccc3[nH]ccc3c2)cc(OC)c1OC`, the IC50 is 2.45 µM.

As to `CCOC(=O)C(C)Oc1cccc2c(=O)n(CC(=O)NCc3ccc(F)cc3)ccc12` (configuration not stated), the IC50 was 9.67 µM.

On to `O=S1(=O)Nc2c(ccc3cccnc23)-c2ccccc21`, for which the IC50 is 0.28 µM.

Take `Cc1cc(-c2ccc(C)c(S(=O)(=O)N3CCN(c4ccc([N+](=O)[O-])cc4)CC3)c2)on1`: the IC50 was > 80 µM (inactive).

On to `CNC[C@H](CC1CCCCC1)NC[C@H](Cc1ccccc1)NCCC12CC3CC(CC(C3)C1)C2`, for which the IC50 was 25 µM (inactive).

With `Cc1ccc(C(=O)Nc2cc3ccccc3oc2=O)cc1`, the IC50 was 0.94 µM.

Regarding `CC(C)CC[n+]1ccccc1/C=C/c1ccc(N(C)C)cc1`, the IC50 is 1.62 µM.

As to `Cc1cccc(N2CCN(C(=O)c3ccc(CS(=O)(=O)c4ccccc4C)o3)CC2C)c1` (configuration not stated), the IC50 was 2.34 µM.

On to `CC(C)Oc1ccccc1C1CC(=O)Nc2cc3c(cc21)OCO3` (configuration not stated), for which the IC50 is 3.01 µM.
